Measurements taken from ChEMBL document CHEMBL6182851, “Discovery of dual CDK4/6 and BRD4 inhibitor as apoptosis and autophagy inducers against NSCLC in vitro and in vivo” (Eur J Med Chem, 2025).
Active and inactive are the calls of the source. The rule behind the calls is not given here.

How the values were obtained:
[1] = tested on: NCI-H460; assay: Induction of autophagy in human NCI-H460 cells assessed as increase in acidic vesicles at 20 uM incubated for 48 hrs by MDC staining and LC3B immunofluorescence analysis; format: functional, cell-based
[2] = tested on: NCI-H1299; assay: Antitumor activity against human NCI-H1299 cells assessed as inhibition of cell viability incubated for 48 hrs in presence of ribociclib by MTT assay; format: functional, cell-based; settings: NCI-H1299, 48 h
[3] = tested on: NCI-H460; assay: Induction of apoptosis in human NCI-H460 cells assessed as early apoptotic cells at 20 uM incubated for 48 hrs in presence of ribociclib by Annexin V-PE/7-AAD staining based flow cytometric analysis (reference value: 3.58 %); format: functional
[4] = tested on: NCI-H460; assay: Induction of cell cycle arrest in human NCI-H460 cells assessed as accumulation of cells at G1 phase at 20 uM in presence of ribociclib incubated for 48 hrs by PI staining based flow cytometric analysis (reference value: 56.7 %); format: functional
[5] = tested on: NCI-H460; assay: Antitumor activity against human NCI-H460 cells xenografted in female BALB/c nude mouse assessed as tumor growth inhibition at 50 mg/kg, ip administered for 21 consecutive days in presence of ribociclib relative to control; format: functional; settings: NCI-H460, 504 h, time 21 day, read-out: TGI
[6] = tested on: A549; assay: cells; settings: Homo sapiens, A549, 48 h
Description: Antitumor activity against human A549 cells assessed as inhibition of cell viability incubated for 48 hrs by MTT assay

[7] = tested on: NCI-H460; assay: Induction of cell cycle arrest in human NCI-H460 cells assessed as accumulation of cells at S phase at 20 uM incubated for 48 hrs by PI staining based flow cytometric analysis (reference value: 33.3 %); format: functional
[8] = tested on: NCI-H460; assay: Induction of apoptosis in human NCI-H460 cells assessed as necrotic cells at 20 uM incubated for 48 hrs in presence of ribociclib by Annexin V-PE/7-AAD staining based flow cytometric analysis (reference value: 0.79 %); format: functional
[9] = tested on: NCI-H460; assay: Induction of cell cycle arrest in human NCI-H460 cells assessed as accumulation of cells at G1 phase at 20 uM incubated for 48 hrs by PI staining based flow cytometric analysis (reference value: 56.7 %); format: functional
[10] = tested on: NCI-H460; assay: Induction of autophagy in human NCI-H460 cells assessed as increase in autophagosomes at 20 uM incubated for 48 hrs by MDC staining and LC3B immunofluorescence analysis; format: functional, cell-based
[11] = tested on: NCI-H460; assay: Antitumor activity against human NCI-H460 cells xenografted in female BALB/c nude mouse assessed as tumor growth inhibition at 50 mg/kg, ip administered for 21 consecutive days relative to control; format: functional; settings: NCI-H460, 504 h, time 21 day, read-out: TGI
[12] = tested on: NCI-H460; assay: cells; settings: Homo sapiens, NCI-H460, 48 h
Description: Antitumor activity against human NCI-H460 cells assessed as inhibition of cell viability incubated for 48 hrs by MTT assay

[13] = tested on: NCI-H460; assay: Induction of cell cycle arrest in human NCI-H460 cells assessed as accumulation of cells at S phase at 20 uM in presence of ribociclib incubated for 48 hrs by PI staining based flow cytometric analysis (reference value: 33.3 %); format: functional
[14] = tested on: NCI-H460; assay: Induction of cell cycle arrest in human NCI-H460 cells assessed as accumulation of cells at G2 phase at 20 uM incubated for 48 hrs by PI staining based flow cytometric analysis (reference value: 11.0 %); format: functional
[15] = tested on: NCI-H460; assay: Induction of apoptosis in human NCI-H460 cells assessed as early apoptotic cells at 20 uM incubated for 48 hrs by Annexin V-PE/7-AAD staining based flow cytometric analysis (reference value: 3.58 %); format: functional
[16] = target: Bromodomain-containing protein 4 (Homo sapiens) (UniProt O60885); settings: dose 1000.0 nM
Description: Inhibition of BRD4 BD2 (unknown origin) assessed as inhibition ratio at 1000 nM relative to control

[17] = tested on: NCI-H460; assay: Induction of cell cycle arrest in human NCI-H460 cells assessed as accumulation of cells at G2 phase at 20 uM in presence of ribociclib incubated for 48 hrs by PI staining based flow cytometric analysis (reference value: 11.0 %); format: functional
[18] = tested on: NCI-H1299; assay: cells; settings: Homo sapiens, NCI-H1299, 48 h
Description: Antitumor activity against human NCI-H1299 cells assessed as inhibition of cell viability incubated for 48 hrs by MTT assay

[19] = tested on: NCI-H460; assay: Induction of apoptosis in human NCI-H460 cells assessed as late apoptotic cells at 20 uM incubated for 48 hrs in presence of ribociclib by Annexin V-PE/7-AAD staining based flow cytometric analysis (reference value: 3.76 %); format: functional
[20] = tested on: NCI-H460; assay: Induction of apoptosis in human NCI-H460 cells assessed as necrotic cells at 20 uM incubated for 48 hrs by Annexin V-PE/7-AAD staining based flow cytometric analysis (reference value: 0.79 %); format: functional
[21] = tested on: NCI-H460; assay: Induction of apoptosis in human NCI-H460 cells assessed as late apoptotic cells at 20 uM incubated for 48 hrs by Annexin V-PE/7-AAD staining based flow cytometric analysis (reference value: 3.76 %); format: functional
[22] = tested on: NCI-H460; assay: Induction of autophagy in human NCI-H460 cells assessed as increase in number of autophagosomes at 20 uM in presence of ribociclib incubated for 48 hrs by MDC staining and LC3B immunofluorescence analysis; format: functional, cell-based
[23] = tested on: A549; assay: Antitumor activity against human A549 cells assessed as inhibition of cell viability incubated for 48 hrs in presence of ribociclib by MTT assay; format: functional, cell-based; settings: A549, 48 h
[24] = tested on: NCI-H460; assay: Antitumor activity against human NCI-H460 cells assessed as inhibition of cell viability incubated for 48 hrs in presence of ribociclib by MTT assay; format: functional, cell-based; settings: NCI-H460, 48 h

In the case of `COc1cc(OC)c2c(=O)[nH]c(-c3cc(C)c(OCCO)c(C)c3)nc2c1` [APABETALONE], the Activity [1] is reported as “inactive”, the IC50 [2] is reported as 8.16 µM and the Activity [3] is reported as 13.8%. The Activity [4] was 87.9%, the inhibition in vivo at 50 mg/kg [5] was 72% and the IC50 [6] was greater than 40 µM. The Activity [7] was 30.1%, the Activity [8] was 1.11% and the Activity [9] was 56%. For the same compound, the Activity [10] was “inactive”, the inhibition in vivo at 50 mg/kg [11] was 37.5% and the IC50 [12] was greater than 40 µM. It also gave an Activity [13] of 9.38%, an Activity [14] of 13% and an Activity [15] of 2.05%. It also gave an inhibition [16] of 89.8%, an Activity [17] of 4.4% and an IC50 [18] of 18.4 µM. The Activity [19] was 5.71%, the Activity [20] was 1.59% and the Activity [21] was 4.99%. The Activity [22] was “inactive”, the IC50 [23] was 18.8 µM and the IC50 [24] was 10.3 µM.
